Test results reported in ChEMBL document CHEMBL1133775, “Potent and selective indolomorphinan antagonists of the kappa-opioid receptor” (J Med Chem, 2000).
pKi: −log10 of the molar value.

Key:
[1] = target: Delta-type opioid receptor (Rattus norvegicus, UniProt P33533); assay: Binding affinity on HEK293 cells transiently transfected with plasmids encoding the rat Opioid receptor delta 1; type: cell-based
[2] = target: Kappa-type opioid receptor (Rattus norvegicus, UniProt P34975); assay: Binding affinity on HEK293 cells transiently transfected with plasmids encoding the rat Opioid receptor kappa 1; type: cell-based
Kappa-type opioid receptor, sequence (P34975 whole entry): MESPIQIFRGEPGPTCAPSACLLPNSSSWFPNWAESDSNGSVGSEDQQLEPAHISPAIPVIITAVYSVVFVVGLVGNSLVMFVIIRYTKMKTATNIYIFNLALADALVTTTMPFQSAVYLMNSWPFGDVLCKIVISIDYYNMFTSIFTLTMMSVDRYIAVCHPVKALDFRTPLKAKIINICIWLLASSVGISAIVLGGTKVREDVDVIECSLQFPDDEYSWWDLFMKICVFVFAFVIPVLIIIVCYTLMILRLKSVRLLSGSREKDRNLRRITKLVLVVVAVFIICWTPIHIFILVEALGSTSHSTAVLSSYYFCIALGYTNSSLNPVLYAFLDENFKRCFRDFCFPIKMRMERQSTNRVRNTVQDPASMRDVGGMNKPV

[3] = Selectivity ratio, ratio of Ke value of mu to kappa opioid receptor
[4] = target: T1, Opioid receptors; delta & kappa (Homo sapiens) (UniProt P41145+P41143); assay: Selectivity ratio, ratio of Ke value of delta to kappa opioid receptor; type: protein assay
T1 sequence (P41143 whole entry, looked up): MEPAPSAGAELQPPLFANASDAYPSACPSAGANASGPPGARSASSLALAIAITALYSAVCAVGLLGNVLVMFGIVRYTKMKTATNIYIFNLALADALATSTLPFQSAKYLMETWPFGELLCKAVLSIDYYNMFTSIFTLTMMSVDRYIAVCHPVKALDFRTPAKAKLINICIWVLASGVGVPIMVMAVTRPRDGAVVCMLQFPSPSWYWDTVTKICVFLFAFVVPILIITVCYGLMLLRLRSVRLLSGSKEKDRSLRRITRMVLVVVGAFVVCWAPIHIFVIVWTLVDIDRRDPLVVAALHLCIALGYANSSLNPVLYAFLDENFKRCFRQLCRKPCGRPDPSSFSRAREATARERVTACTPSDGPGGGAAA
T1 sequence (P41145 whole entry, looked up): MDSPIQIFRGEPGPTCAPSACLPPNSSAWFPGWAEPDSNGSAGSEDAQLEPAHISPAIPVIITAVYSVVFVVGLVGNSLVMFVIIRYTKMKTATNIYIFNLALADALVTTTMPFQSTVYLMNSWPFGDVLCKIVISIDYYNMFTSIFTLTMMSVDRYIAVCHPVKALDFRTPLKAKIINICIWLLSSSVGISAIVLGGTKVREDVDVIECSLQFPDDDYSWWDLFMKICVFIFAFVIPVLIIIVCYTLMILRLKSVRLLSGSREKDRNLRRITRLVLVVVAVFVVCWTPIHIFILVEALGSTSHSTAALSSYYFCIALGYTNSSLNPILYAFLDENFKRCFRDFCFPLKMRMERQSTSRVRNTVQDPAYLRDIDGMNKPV

[5] = target: Kappa-type opioid receptor (Cavia porcellus) (UniProt P41144); assay: Ratio of the IC50 of Kappa receptor agonist, ethylketazocine in the presence of compound in GPI divided by the control IC50.; type: functional
Kappa-type opioid receptor (Cavia porcellus), sequence (P41144 whole entry): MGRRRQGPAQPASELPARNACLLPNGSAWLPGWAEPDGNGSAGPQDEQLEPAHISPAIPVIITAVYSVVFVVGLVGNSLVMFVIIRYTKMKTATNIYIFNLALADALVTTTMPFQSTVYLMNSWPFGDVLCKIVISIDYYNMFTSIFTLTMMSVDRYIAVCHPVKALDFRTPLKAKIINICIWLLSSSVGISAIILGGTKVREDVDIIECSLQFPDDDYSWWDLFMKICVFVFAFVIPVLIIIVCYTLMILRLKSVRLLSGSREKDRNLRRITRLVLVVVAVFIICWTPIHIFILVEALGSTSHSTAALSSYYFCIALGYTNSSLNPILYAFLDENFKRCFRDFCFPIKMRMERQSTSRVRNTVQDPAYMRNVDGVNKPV

[6] = target: Delta-type opioid receptor (Mus musculus) (UniProt P32300); assay: Ratio of the IC50 of delta receptor agonist, [D-Ala-2, D-Leu5]-enkephalin in the presence of compound in MVD divided by the control IC50.; type: functional
Delta-type opioid receptor (Mus musculus), sequence (P32300 whole entry): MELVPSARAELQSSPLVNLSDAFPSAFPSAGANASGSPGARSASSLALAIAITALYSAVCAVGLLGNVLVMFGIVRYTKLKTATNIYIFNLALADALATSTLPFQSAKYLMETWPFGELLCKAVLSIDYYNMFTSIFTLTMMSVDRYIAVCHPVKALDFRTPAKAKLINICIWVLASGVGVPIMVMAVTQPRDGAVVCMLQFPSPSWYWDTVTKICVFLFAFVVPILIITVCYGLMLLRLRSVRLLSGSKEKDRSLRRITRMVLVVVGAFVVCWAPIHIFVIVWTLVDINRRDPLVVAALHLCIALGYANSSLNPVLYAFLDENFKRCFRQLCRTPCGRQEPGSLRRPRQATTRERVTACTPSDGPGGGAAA

[7] = target: Mu-type opioid receptor (Cavia porcellus) (UniProt P97266); assay: Ratio of the IC50 of mu receptor agonist, Morphine in the presence of compound in GPI divided by the control IC50.; type: functional
Mu-type opioid receptor (Cavia porcellus), sequence (P97266 whole entry): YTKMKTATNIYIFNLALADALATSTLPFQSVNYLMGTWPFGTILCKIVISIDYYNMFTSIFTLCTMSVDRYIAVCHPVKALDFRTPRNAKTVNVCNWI

[8] = target: Delta-type opioid receptor (Mus musculus) (UniProt P32300); assay: Opioid receptor delta 1 Antagonism (100 nM) is expressed as (Ke = [antagonist] / (IC50 ratio -1); type: functional
[9] = target: Mu-type opioid receptor (Cavia porcellus) (UniProt P97266); assay: Opioid receptor mu 1 Antagonism (100 nM) is expressed as (Ke = [antagonist] / (IC50 ratio -1); type: functional
[10] = target: Kappa-type opioid receptor (Cavia porcellus) (UniProt P41144); assay: Opioid receptor kappa 1 Antagonism (100 nM) is expressed as (Ke = [antagonist] / (IC50 ratio -1); type: functional
[11] = Selectivity ratio, ratio of Ke value of Kappa to Delta opioid receptor
Mu-type opioid receptor = Mu-type opioid receptor (Rattus norvegicus, UniProt P33535); assay: Binding affinity on HEK293 cells transiently transfected with plasmids encoding the rat Opioid receptor mu 1; type: cell-based
Mu-type opioid receptor, sequence (P33535 whole entry): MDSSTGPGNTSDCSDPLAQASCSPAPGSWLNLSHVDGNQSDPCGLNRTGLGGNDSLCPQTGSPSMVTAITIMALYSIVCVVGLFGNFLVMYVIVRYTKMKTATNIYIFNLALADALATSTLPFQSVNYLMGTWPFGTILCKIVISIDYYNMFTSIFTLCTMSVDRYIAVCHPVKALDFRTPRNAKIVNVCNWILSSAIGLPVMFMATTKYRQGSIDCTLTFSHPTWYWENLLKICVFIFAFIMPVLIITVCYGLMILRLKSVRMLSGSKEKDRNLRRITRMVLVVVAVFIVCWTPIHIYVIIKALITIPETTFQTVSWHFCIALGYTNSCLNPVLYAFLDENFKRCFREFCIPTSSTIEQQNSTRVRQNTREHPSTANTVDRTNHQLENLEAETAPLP

[12] = target: T2, Opioid receptors; mu & kappa (Homo sapiens) (UniProt P41145+P35372); assay: Selectivity ratio, ratio of binding affinity of mu to kappa opioid receptor; type: protein assay
T2 sequence (P35372 whole entry, looked up): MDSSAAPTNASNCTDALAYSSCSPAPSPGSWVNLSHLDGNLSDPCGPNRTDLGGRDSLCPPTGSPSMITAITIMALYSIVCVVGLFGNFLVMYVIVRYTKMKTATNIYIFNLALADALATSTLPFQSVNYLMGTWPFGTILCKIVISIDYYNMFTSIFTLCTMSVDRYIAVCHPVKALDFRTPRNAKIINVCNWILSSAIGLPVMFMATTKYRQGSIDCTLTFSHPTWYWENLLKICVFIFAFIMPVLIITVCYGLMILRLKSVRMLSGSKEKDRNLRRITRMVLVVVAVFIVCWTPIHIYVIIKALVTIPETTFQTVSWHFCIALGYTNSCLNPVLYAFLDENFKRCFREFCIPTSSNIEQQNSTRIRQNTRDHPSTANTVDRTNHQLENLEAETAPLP
T2 sequence (P41145 whole entry, looked up): as the sequence (P41145 whole entry, looked up) above

[13] = target: T1, Opioid receptors; delta & kappa (Homo sapiens); assay: Selectivity ratio, ratio of binding affinity of delta to kappa opioid receptor; type: protein assay
[14] = target: T1, Opioid receptors; delta & kappa (Homo sapiens); assay: Selectivity ratio, ratio of Ke value of Kappa to Delta opioid receptor (extrapolated value); type: protein assay
[15] = target: T2, Opioid receptors; mu & kappa (Homo sapiens); assay: Selectivity ratio, ratio of Ke value of Kappa to mu opioid receptor; type: protein assay
[16] = target: T1, Opioid receptors; delta & kappa (Homo sapiens); assay: Selectivity ratio, ratio of Ke value of kappa to delta opioid receptor (extrapolated value); type: protein assay

Delta-type opioid receptor, sequence (P33533 whole entry): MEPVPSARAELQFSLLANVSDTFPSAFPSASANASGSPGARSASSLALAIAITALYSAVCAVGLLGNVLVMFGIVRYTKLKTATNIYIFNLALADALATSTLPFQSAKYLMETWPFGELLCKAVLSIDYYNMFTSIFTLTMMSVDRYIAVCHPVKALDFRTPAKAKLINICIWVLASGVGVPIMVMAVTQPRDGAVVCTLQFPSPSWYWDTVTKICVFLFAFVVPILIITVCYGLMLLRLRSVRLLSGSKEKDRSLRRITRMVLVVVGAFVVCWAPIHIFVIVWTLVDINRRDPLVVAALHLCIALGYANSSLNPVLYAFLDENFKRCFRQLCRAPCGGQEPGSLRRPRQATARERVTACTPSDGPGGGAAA

| Structure (SMILES) | pKi [1] | pKi [2] | Ratio [3] | Ratio [4] | IC50 ratio [5] | IC50 ratio [6] | IC50 ratio [7] | Ke [8] [nM] | Ke [9] [nM] | Ke [10] [nM] | Ratio [11] | pKi (Mu-type opioid receptor) | Ratio [12] | Ratio [13] | Ratio [14] | Ratio [15] | Ratio [16] |
| --- | --- | --- | --- | --- | --- | --- | --- | --- | --- | --- | --- | --- | --- | --- | --- | --- | --- |
| Oc1ccc2c3c1O[C@H]1c4[nH]c5c(c4C[C@@]4(O)[C@@H](C2)N(CC2CC2)CC[C@]314)C[C@@]1(O)[C@H]2Cc3ccc(O)c4c3[C@@]1(CCN2CC1CC1)[C@H]5O4 [NORBINALTORPHIMINE] | 7.38 | 9.61 | – | – | – | – | – | – | – | – | – | – | – | – | – | – | – |
| NCc1ccc2[nH]c3c(c2c1)C[C@@]1(O)C2Cc4ccc(O)c5c4[C@@]1(CCN2CC1CC1)[C@H]3O5 | – | – | 1.8 | 0.5 | 3.9 | 6.4 | 2.6 | 18 | 61 | 34 | – | – | – | – | – | – | – |
| N=C(N)c1ccc2[nH]c3c(c2c1)C[C@@]1(O)C2Cc4ccc(O)c5c4[C@@]1(CCN2CC1CC1)[C@H]3O5 | 6.95 | 9.28 | 22 | – | 142 | 0.3 | 7.2 | – | 16 | 0.7 | 142 | 7.18 | – | – | – | – | – |
| N=C(N)N=C(N)Nc1ccc2[nH]c3c(c2c1)C[C@@]1(O)C2Cc4ccc(O)c5c4[C@@]1(CCN2CC1CC1)[C@H]3O5 | 6.97 | 9.65 | – | – | – | – | – | – | – | – | – | 7.67 | – | – | – | – | – |
| N#CN=C(N)Nc1ccc2[nH]c3c(c2c1)C[C@@]1(O)C2Cc4ccc(O)c5c4[C@@]1(CCN2CC1CC1)[C@H]3O5 | 8.02 | 8.35 | – | – | – | – | – | – | – | – | – | 7.05 | – | – | – | – | – |
| N=C(N)/N=C(\N)Nc1ccc2[nH]c3c(c2c1)C[C@@]1(O)C2Cc4ccc(O)c5c4[C@@]1(CCN2CC1CC1)[C@H]3O5 | – | – | 74 | – | 512 | 0.41 | 7.9 | – | 14 | 0.2 | 512 | – | 95 | 478 | – | – | – |
| N=C(N)Nc1ccc2[nH]c3c(c2c1)C[C@@]1(O)[C@H]2Cc4ccc(O)c5c4[C@@]1(CCN2CC1CC1)[C@H]3O5 [GUANIDINONALTRINDOLE] | 7.34 | 9.74 | 193 | – | – | – | – | – | – | – | – | 7.65 | 125 | 257 | 366 | – | – |
| CSC(=N)Nc1ccc2[nH]c3c(c2c1)C[C@@]1(O)C2Cc4ccc(O)c5c4[C@@]1(CCN2CC1CC1)[C@H]3O5 | – | – | 33 | – | 43.6 | 1.9 | 7.4 | – | 16 | 0.5 | – | – | – | – | 115 | – | – |
| N#CN/C(N)=N/Cc1ccc2[nH]c3c(c2c1)C[C@@]1(O)C2Cc4ccc(O)c5c4[C@@]1(CCN2CC1CC1)[C@H]3O5 | – | – | 6.2 | 2 | 35.4 | 17.9 | 6.7 | 5.9 | 18 | 2.9 | – | – | – | – | – | – | – |
| CN1CC[C@]23c4c5ccc(O)c4O[C@H]2c2[nH]c4ccc(NC(=N)N)cc4c2C[C@@]3(O)C1C5 | – | – | – | – | 6.8 | 1.7 | 1.1 | – | – | 17 | 4.1 | – | 310 | > 3530 | – | 6.3 | – |
| N#CN/C(N)=N/c1ccc2[nH]c3c(c2c1)C[C@@]1(O)C2Cc4ccc(O)c5c4[C@@]1(CCN2CC1CC1)[C@H]3O5 | – | – | 5.1 | 2.9 | 33 | 12 | 7.2 | – | – | – | – | – | 20 | 2 | – | – | – |
| CC(=N)NCCc1ccc2[nH]c3c(c2c1)C[C@@]1(O)C2Cc4ccc(O)c5c4[C@@]1(CCN2CC1CC1)[C@H]3O5 | – | – | 27 | 65 | 72.1 | 6.4 | 14.1 | – | 7.6 | 0.3 | – | – | – | – | – | – | – |
| Nc1ccc2[nH]c3c(c2c1)C[C@@]1(O)C2Cc4ccc(O)c5c4[C@@]1(CCN2CC1CC1)[C@H]3O5 | – | – | – | – | 4 | 10.3 | 2.8 | – | 57 | – | 0.4 | – | – | – | – | 1.5 | – |
| NCCc1ccc2[nH]c3c(c2c1)C[C@@]1(O)C2Cc4ccc(O)c5c4[C@@]1(CCN2CC1CC1)[C@H]3O5 | – | – | – | – | 48.1 | 2.3 | 3.2 | – | – | 2.1 | 21 | – | – | – | – | 15 | – |
| CN(C)CCc1ccc2[nH]c3c(c2c1)C[C@@]1(O)C2Cc4ccc(O)c5c4[C@@]1(CCN2CC1CC1)[C@H]3O5 | – | – | – | – | 32 | 1.8 | 2.4 | – | – | 3.2 | 18 | – | – | – | – | 13 | – |
| CN(C)Cc1ccc2[nH]c3c(c2c1)C[C@@]1(O)C2Cc4ccc(O)c5c4[C@@]1(CCN2CC1CC1)[C@H]3O5 | 7.80 | 9.08 | 12 | – | 125 | 1.4 | 11.2 | – | 9.8 | 0.8 | 87 | 7.44 | 44 | 19 | – | – | – |
| N=C(N)NCCc1ccc2[nH]c3c(c2c1)C[C@@]1(O)[C@H]2Cc4ccc(O)c5c4[C@@]1(CCN2CC1CC1)[C@H]3O5 | 7.97 | 9.29 | 7.3 | 2 | 59.8 | 30.1 | 9.1 | 3.4 | 12 | 1.7 | – | 7.48 | 66 | 21 | – | – | – |
| CN(C)c1ccc2[nH]c3c(c2c1)C[C@@]1(O)C2Cc4ccc(O)c5c4[C@@]1(CCN2CC1CC1)[C@H]3O5 | – | – | 5.3 | – | 15.8 | 2.4 | 3.8 | – | 36 | 6.8 | 6.6 | – | – | – | – | – | – |
| CC(=N)NCc1ccc2[nH]c3c(c2c1)C[C@@]1(O)C2Cc4ccc(O)c5c4[C@@]1(CCN2CC1CC1)[C@H]3O5 | – | – | 1.4 | – | 17.3 | 0.88 | 12.4 | – | 8.8 | 6.1 | 17.3 | – | – | – | – | – | – |
| N=C(N)Cc1ccc2[nH]c3c(c2c1)C[C@@]1(O)C2Cc4ccc(O)c5c4[C@@]1(CCN2CC1CC1)[C@H]3O5 | 7.48 | 9.67 | – | – | 46.7 | 1.8 | 2.1 | – | – | 2.2 | 26 | 7.39 | – | – | – | – | – |
| C[N+](C)(C)CCc1ccc2[nH]c3c(c2c1)C[C@@]1(O)C2Cc4ccc(O)c5c4[C@@]1(CCN2CC1CC1)[C@H]3O5 | – | – | 13 | – | 48 | 2.5 | 18.5 | – | 5.7 | 0.4 | – | – | – | – | – | – | 96 |
| N=C(N)NCc1ccc2[nH]c3c(c2c1)C[C@@]1(O)[C@H]2Cc4ccc(O)c5c4[C@@]1(CCN2CC1CC1)[C@H]3O5 | 7.51 | 9.13 | 19 | – | 172 | 0.88 | 10.3 | – | 11 | 0.6 | 172 | 7.18 | 89 | 41 | – | – | – |
| C[N+](C)(C)Cc1ccc2[nH]c3c(c2c1)C[C@@]1(O)C2Cc4ccc(O)c5c4[C@@]1(CCN2CC1CC1)[C@H]3O5 | 7.11 | 9.45 | 6.2 | – | 154 | 0.79 | 25.8 | – | 4 | 0.7 | 154 | 7.89 | 36 | 221 | – | – | – |
| N/C(S)=N/c1ccc2[nH]c3c(c2c1)C[C@@]1(O)C2Cc4ccc(O)c5c4[C@@]1(CCN2CC1CC1)[C@H]3O5 | – | – | 5.3 | – | 14.9 | 1.3 | 3.6 | – | 38 | 7.2 | 12 | – | – | – | – | – | – |
| CN1CC[C@]23c4c5ccc(O)c4O[C@H]2c2[nH]c4ccc(N=C(N)N)cc4c2C[C@@]3(O)C1C5 | < 5.00 | 8.55 | – | – | – | – | – | – | – | – | – | 6.06 | – | – | – | – | – |
| C[N+](C)(C)c1ccc2[nH]c3c(c2c1)C[C@@]1(O)C2Cc4ccc(O)c5c4[C@@]1(CCN2CC1CC1)[C@H]3O5 | – | – | – | – | 33.3 | 3.6 | 2.7 | – | – | 3.1 | 9.1 | – | – | – | – | 13 | – |
| CC(=N)Nc1ccc2[nH]c3c(c2c1)C[C@@]1(O)C2Cc4ccc(O)c5c4[C@@]1(CCN2CC1CC1)[C@H]3O5 | – | – | 15 | – | 99.4 | 1.9 | 7.5 | – | 16 | 1 | 52 | – | – | – | – | – | – |
